Measurements from article PMC10054240, “New Inhibitors of Respiratory Syncytial Virus (RSV) Replication Based on Monoterpene-Substituted Arylcoumarins” (Molecules, 2023).

How the values were obtained:
[1] = Cytotoxicity on non-infected HEp-2 cells, MTT assay; format: cell-based; settings: human, non-infected HEp-2 cells, CC50 (50% cytotoxic concentration), MTT, 24 h
RSV A strain A2 = assay: Antiviral activity against RSV A strain A2 in HEp-2 cells (ELISA virus titer); format: cell-based, respiratory syncytial virus
RSV type B = assay: Inhibition of reproduction of RSV type B; format: cell-based; settings: human respiratory syncytial virus
Method: The antiviral activity against the respiratory syncytial virus was assessed in a series of 3-fold dilutions of test compounds, starting from ½CC50, which were added to HEp-2 cell culture, at a double concentration, 100 μL per well, followed by addition of 100 μL of the virus in a series of 10-fold dilutions. Cells were incubated at 37 °C and 5% CO2 for 1 h. Then, the virus was washed out, and the compounds were again added at a single concentration and incubated at 37 °C and 5% CO2 for 6 days. For the enzyme-linked immunosorbent assay (ELISA), cell culture was fixed with cold 80% acetone at −20 °C for 15 min, and then washed with phosphate buffered saline containing 0.05% Tween 20. Next, a solution of primary mouse anti-RSV F protein antibodies was added to the culture and incubated at room temperature under continuous stirring for 2 h. Then, cells were again washed with buffer, secondary anti-mouse antibodies were added, and the cells were incubated under continuous stirring for 2 h. […] After 5 min, the reaction was stopped with 0.1 M sulfuric acid, and optical density of the solution was measured at a wavelength of 450 nm. Wells with absorbance values two fold or greater than the cell control were considered to be […]. The virus titer was calculated using the Reed and Muench method. […]

RSV A2 virus = assay: Time-of-addition assay; format: cell-based, respiratory syncytial virus; settings: 300 μg/mL, RSV A2, titer by ELISA
Method: Compounds 14e and 14b at a concentration of 300 μg/mL were added at different time intervals before, after, or during virus inoculation (Figure 2 and Figure 3). The time of compound addition was counted off from Point 0, i.e., the moment of virus entry into the cell. RSV A2 virus was added to cells at a time conventionally designated as […]; then, cells were kept at a temperature of 40 °C for 1 h. Next, at Point 0, unbound virus was washed off, fresh medium containing compounds at the same concentration was added, and the cells were transferred to a thermostat at 37 °C where they were incubated for 25 h. After this, medium collected from each well was used to make a series of ten-fold dilutions with fresh cell culture. The cells were incubated for 6 days. The viral titer was measured by ELISA.
Compounds were added at different time points before, after, or simultaneously with the introduction of the virus. The time of addition of the compounds was counted from Point 0, i.e., the time of entry of the virus into the cell. During the period (−1)–0, the cells together with the virus were incubated at 40 °C. All other experiments were carried out at 37 °C. RSV virus A […] was added to the cells at a time that was conventionally designated as […], after which the cells were kept for an hour at a temperature of 40 °C. Then, at Point 0, the virus was unbound. […]

Compound: CC1(C)[C@H]2CC=C(CCCOc3ccc4c(-c5ccccc5)cc(=O)oc4c3)[C@@H]1C2 [Compound 14e, 7-(3-((1R,5S)-6,6-Dimethylbicyclo[3.1.1]hept-2-en-2-yl)propoxy)-4-phenyl-2H-chromen-2-one]
- CC50 at 24 h [1]: 1440 ± 85.1 µM
- antiviral activity against RSV A (in words) (RSV A strain A2; RSV A, HEp-2 cells): inhibiting virus replication at low micromolar concentrations
- IC50 (RSV A strain A2; human respiratory syncytial virus, HEp-2, RSV A, from Table 1 values, read-out: pIC50 (-lg[IC50]) (converted)): 7.59 µM
- EC50 (RSV A strain A2; human respiratory syncytial virus, HEp-2, read-out: EC50 (50% effective concentration)): 7.5 ± 0.4 µM
- EC50 (RSV type B): 3 ± 0.2 µM
- effect on viral titer depending on time of addition (in words) (RSV A2 virus): reduced the viral titer upon addition at all time periods through 6 h after infection
